The record followed here is BindingDB's records for doi:10.1016/s0960-894x(01)00529-7 (The R. W. Johnson Pharmaceutical Research Institute, 2001).

The experiment can be described thus: Inhibition of thrombin-induced human gel-filtered platelet aggregation.

As a reminder, the IC50 is the point on the concentration scale where inhibition reaches its midpoint.

Consider `O=C(O)C[C@H](NC(=O)c1cccn2c(CCC3CCNCC3)nnc12)c1cccnc1` [(S)-3-{[3-(2-Piperidin-4-yl-ethyl)-[1,2,4]triazolo[4,3-a]pyridine-8-carbonyl]-amino}-3-pyridin-3-yl-propionic acid], for which the IC50 came to 0.37 nM. Compound `O=C(N[C@@H](CNC(=O)C1CCCn2c(C=CC3CCNCC3)nnc21)C(=O)O)OCc1ccccc1` (stereo partly specified) [2-Benzyloxycarbonylamino-3-{[3-(2-piperidin-4-yl-vinyl)-5,6,7,8-tetrahydro-[1,2,4]triazolo[4,3-a]pyridine-8-carbonyl]-amino}-propionic acid] came in with a half-inhibitory concentration (IC50) of 0.041 nM. With `O=C(O)C[C@H](NC(=O)[C@@H]1CCCN(C(=O)CCC2CCNCC2)C1)c1cccnc1` [(S)-3-{[(R)-1-(3-Piperidin-4-yl-propionyl)-piperidine-3-carbonyl]-amino}-3-pyridin-3-yl-propionic acid] the figure was 0.06 nM; with `CC1(C(=O)NC[C@H](NC(=O)OCc2ccccc2)C(=O)O)CCCn2c(CCC3CCNCC3)nnc21` (stereo partly specified) [2-Benzyloxycarbonylamino-3-{[8-methyl-3-(2-piperidin-4-yl-ethyl)-5,6,7,8-tetrahydro-[1,2,4]triazolo[4,3-a]pyridine-8-carbonyl]-amino}-propionic acid], 2.7 nM. With `O=C(Cc1cccnc1)N[C@@H](CNC(=O)C1CCCn2c(/C=C/C3CCNCC3)nnc21)C(=O)O` (stereo partly specified) [3-{[3-(2-Piperidin-4-yl-vinyl)-5,6,7,8-tetrahydro-[1,2,4]triazolo[4,3-a]pyridine-8-carbonyl]-amino}-2-(2-pyridin-3-yl-acetylamino)-propionic acid] the figure was 0.12 nM; with `O=C(O)C[C@H](NC(=O)C1CCCn2c(CCC3CCNCC3)nnc21)c1cccnc1` (stereo partly drawn) [(S)-3-{[3-(2-Piperidin-4-yl-ethyl)-5,6,7,8-tetrahydro-[1,2,4]triazolo[4,3-a]pyridine-8-carbonyl]-amino}-3-pyridin-3-yl-propionic acid], 0.016 nM; with `O=C(N[C@@H](CNC(=O)[C@@H]1CCCN(C(=O)CCC2CCNCC2)C1)C(=O)O)OCc1ccccc1` [RWJ-53419], 0.027 nM. With `O=C(NC[C@H](NS(=O)(=O)Cc1ccccc1)C(=O)O)C1CCCn2c(/C=C/C3CCNCC3)nnc21` (stereo partly specified) [2-Phenylmethanesulfonylamino-3-{[3-(2-piperidin-4-yl-vinyl)-5,6,7,8-tetrahydro-[1,2,4]triazolo[4,3-a]pyridine-8-carbonyl]-amino}-propionic acid] the figure was 0.043 nM. Consider `O=C(O)C[C@H](NC(=O)C1CCCn2c(/C=C/C3CCNCC3)nnc21)c1cccnc1` (stereo partly drawn) [(S)-3-{[3-((E)-2-Piperidin-4-yl-vinyl)-5,6,7,8-tetrahydro-[1,2,4]triazolo[4,3-a]pyridine-8-carbonyl]-amino}-3-pyridin-3-yl-propionic acid], for which half-maximal inhibition (IC50) was put at 0.061 nM. The compound `O=C(N[C@@H](CNC(=O)C1CCCn2c(CCC3CCNCC3)nnc21)C(=O)O)OCc1ccccc1` (stereo partly specified) [2-Benzyloxycarbonylamino-3-{[3-(2-piperidin-4-yl-ethyl)-5,6,7,8-tetrahydro-[1,2,4]triazolo[4,3-a]pyridine-8-carbonyl]-amino}-propionic acid] returned an IC50 of 0.068 nM. With `O=C(O)C[C@H](NC(=O)C1CCCn2c(/C=C/C3CCNCC3)nnc21)c1cnc2ccccc2c1` (stereo partly drawn) [(S)-3-{[3-((E)-2-Piperidin-4-yl-vinyl)-5,6,7,8-tetrahydro-[1,2,4]triazolo[4,3-a]pyridine-8-carbonyl]-amino}-3-quinolin-3-yl-propionic acid] the figure was 0.057 nM.
